{"source": "patent US9433663B2", "about": "“Mobilization of hematopoietic stem cells” (Children's Hospital Medical Center, priority 2008, dated 2016)", "key": {"[1]": {"tested_on": "primitive human hematopoietic cells (CD45+CD34+CD38−)", "assay": "Example 7 mobilization of human HSC/Ps in NOD-SCID model", "format": "in vivo, NOD-SCID mice transplanted with CD34+ HCB cells", "conditions": "flow cytometry", "description": "The mobilization effects of CASIN on human HSC/Ps using an established preclinical in vivo mouse model are examined. […] This reconstituting population of human hematopoietic cells is operationally defined as SCID-repopulating cells (SRCs), and accordingly represents candidate human HSCs.\nPrimitive CD34+ human neonatal umbilical cord blood cells are transplanted into sublethally irradiated recipients. Around 10-week posttransplantation, human multilineage repopulating capacity of transplanted HSCs is examined using flow cytometry for surface markers representing human lymphoid (CD19, CD20), myeloid (CD15, CD33) and primitive (CD34, CD38) hematopoietic subsets. […] To further characterize the effect of CASIN on mobilization of primitive human HSC mobilization, progenitor potential is determined using functional clonogenic assays of hematopoietic colony-forming units (CFUs) derived from HPCs33. Numbers of CFUs are counted posinjection of CASIN treatment, in comparison with control medium and G-CSF administration."}, "Rac1": {"biological_target": "T1, Rac1 (Mus musculus, UniProt P63001)", "T1 construct": "endogenous in cells; host or cells: murine LDBM cells", "assay": "Rho GTPase effector pull-down in murine LDBM cells, Rac1", "format": "cell-based", "conditions": "parallel pull-down assay", "procedure": "To analyze the effects of CASIN on the formation of active GTP-bound Cdc42, RhoA, and Rac1, effector pulldown assays were carried out as described previously. Cdc42GAP^−/− MEF, LDBM, CD34^+ hCB cells were treated with CASIN at doses of 5-20 μM in parallel with vehicle control for 2 hrs after overnight starvation, and stimulated with cytokines subsequently. And then cells were lysed in a buffer containing 20 mM Tris-HCL (pH 7.6), 100 mM NaCl, 1% Triton X-100, 10 mM MgCl2, 2 mM NaF, and Protease inhibitor cocktail (Roche Diagnostics). Lysates were incubated with GST-P21-binding domain of PAK1 for RAC1-GTP and Cdc42-GTP, and GST-RBD domain of Rhotekin for RhoA-GTP respectively. Both bound- and unbound-form of Rho GTPases were probed by immunoblotting with antibodies specific for Rac1 (BD biosciences), Cdc42 (BD biosciences), and RhoA (cell signaling)."}, "32D myeloid progenitors [2]": {"tested_on": "32D myeloid progenitors", "assay": "transwell migration of 32D progenitors towards SDF1α", "format": "cell-based, murine", "conditions": "dose-dependent manner", "description": "(§1) To shed light on potential roles of CASIN in HSPC mobilization, the effects of CASIN on Cdc42-related cellular functions was studied, including adhesion, migration, and F-actin polymerization of progenitor cells in 32D myeloid progenitors. […] SDF-1α stimulation causes a reorganization of F-actin into a cortical ring around the cells. […] Thirdly, to gain further insight into cellular specificity and efficacy of CASIN, and also to rule out possible toxic effects by CASIN, Cdc42-involved BM progenitor cell functions were examined, including proliferation, adhesion, migration, and F-actin polymerization, in Cdc42^+/+ cells in parallel with Cdc42^−/− cells. In line with additional studies in a Cdc42 conditional knockout mouse model as described herein, Cdc42^−/− LDBM cells have increased CFU-forming progenitors compared to those of Cdc42^+/+."}, "[3]": {"tested_on": "human CD45^+ hematopoietic cells", "assay": "mobilization of human CD45+ cells in NOD/SCID-hCB model", "format": "in vivo, NOD/SCID mice xenografted with human CD34^+ hCB cells", "conditions": "intravenous injection, by 20 min post administration", "procedure": "To begin to study potential utility of CASIN in human hematopoietic stem cell mobilization, a series of cellular assays were carried out to determine the effects on human CD34^+ umbilical cord blood cells (HCBs). […] The effects of CASIN on human hematopoietic cell mobilization was therefore tested using a well established preclinical in vivo model (NOD/SCID-Hcb) of human hematopoietic function, where fresh CD34^+ hCB cells were transplanted into sub-lethally irradiated NOD/SCIDs by intrafemoral injection, and repopulated and maintained human hematopoietic reconstitution in the bone marrow of NOD/SCID recipient mice (FIG. 9b, FIG. 11) (Larochelle, A. et al. Nat Med 2, 1329-1337 (1996); Bhatia, M., et al. Proc Natl Acad Sci USA 94, 5320-5325 (1997)). Intravenous injections of CASIN were applied when human cells were well engrafted in the NOD/SCID recipients.\nC57BL/6, NOD/SCID, NOD/SCID-SGM3 and NOD/SCIDγC−/− (NOG) were in house bred in the animal barrier facility of Cincinnati Children's Hospital Medical Center (CCHMC) and used at the age of 6-8 weeks old. Cultured N-RasMA93 cells were injected into NOD/SCIDγC−/− mice by tail vein. Freshly thawed CD34^+ hCB cells were transplanted into NOD/SCID mice by intrafemoral injection."}, "32D myeloid progenitors [4]": {"tested_on": "32D myeloid progenitors", "assay": "FACS analysis of F-actin reorganization in 32D progenitors", "format": "cell-based, murine", "conditions": "dose-dependent pattern", "description": "as §1"}, "C57Bl/6 mice": {"tested_on": "C57Bl/6 mice", "assay": "Example 7 PK/PD analysis of HPC mobilization in C57Bl/6 mice", "format": "in vivo", "procedure": "The mice are i.p. administered with CASIN at 6 different doses (0.5, 1.0, 2.5, 5.0, 7.5, and 10 mg/Kg), and ˜1 ml blood are collected by cardiac puncture for PD and PK analysis predosing, 6, 12, 24, 36, 48, 60, and 72 h postdosing. 5 mice are used for each group. To do PK analysis, concentrations of CASIN in plasma are determined by high-pressure liquid chromatography (HPLC) with electrochemical detection, and then all compartmental and noncompartmental analyses are performed using WinNonlin Professional (version 2.0) software (Pharsight, Cary, N.C.). The maximum drug concentration in serum (Cmax) and the time to Cmax are determined directly from the concentration-time curves. Terminal elimination half-life is determined by linear regression of the log-transformed final concentration-time points. As for the PD analysis, the effects of CASIN on mobilization of CFU-GM, CFU-GEMM, BFU-E and CFU-E to the blood of C57Bl/6 mice are evaluated. By using the rest of blood, assays for CFU-GM, CFU-GEMM, BFU-E and CFU-E are performed using ingredients and cytokine combinations, and then the plot of CFU number versus time across the dose groups is drawn. In this way, the optimal dose and time for mobilization in C57Bl/6 mice are determined. […]"}, "Cdc42": {"biological_target": "Cdc42 (Homo sapiens, UniProt P60953)", "sequence (P60953 whole entry, species assumed)": "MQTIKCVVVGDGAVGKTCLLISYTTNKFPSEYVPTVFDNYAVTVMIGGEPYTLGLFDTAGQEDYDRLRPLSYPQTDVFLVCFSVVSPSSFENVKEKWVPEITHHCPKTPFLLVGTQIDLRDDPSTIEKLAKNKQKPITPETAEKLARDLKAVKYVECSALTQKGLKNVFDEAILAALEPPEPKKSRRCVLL", "assay": "nucleotide exchange: intersectin-induced association of mant-GDP with Cdc42", "format": "biochemical", "conditions": "FIG. 1b", "description": "For example, even at 10 times the IC50 of Cdc42, a 50% inhibition of the association of mant-GDP with Rac or Rho was not achieved."}, "LDBM cells": {"tested_on": "LDBM cells", "assay": "proliferation (CFU) and toxicity in Cdc42+/+ and Cdc42−/− LDBM progenitors", "format": "cell-based, murine", "description": "as §1"}}, "data": [{"smiles": "OCCNC1CCCc2c1[nH]c1ccc(-c3ccccc3)cc21", "note": "(stereo not drawn) [CASIN]", "values": [{"measurement": "frequency and total number of primitive human hematopoietic cells (CD45+CD34+CD38−) in peripheral blood", "setting": "[1]", "result": "increases significantly"}, {"measurement": "Rac1 activity", "setting": "Rac1", "result": "no effects"}, {"measurement": "migration of 32D progenitor cells towards SDF1α gradient", "setting": "32D myeloid progenitors [2]", "result": "significantly reduced migration"}, {"measurement": "human CD45^+ hematopoietic cells mobilized to the peripheral blood", "setting": "[3]", "result": "significant amount of human CD45^+ hematopoietic cells mobilized to the peripheral blood"}, {"measurement": "F-actin reorganization stimulated by SDF1α", "setting": "32D myeloid progenitors [4]", "result": "significantly dampened"}, {"measurement": "mobilization after multiple injections one half-life time apart", "setting": "C57Bl/6 mice; C57/B16", "result": "stronger mobilization effects than that of single CASIN injection"}, {"measurement": "mobilization of HPCs (colony numbers versus dose)", "setting": "C57Bl/6 mice; single i.p. dose, C57Bl/6 mice", "result": "dose-dependent pattern"}, {"measurement": "association of mant-GDP with Cdc42 induced by intersectin", "setting": "Cdc42", "result": "dose-dependent inhibition"}, {"measurement": "proliferation of WT progenitors", "setting": "LDBM cells; Cdc42^+/+ LDBM cells, FIG. 2d", "result": "did not affect"}, {"measurement": "side effect on the KO cells", "setting": "LDBM cells; Cdc42^−/− LDBM cells, FIG. 2d", "result": "nor showed any side effect"}, {"measurement": "myeloproliferative disorders (MPDs) or hyperactivation", "setting": "LDBM cells; as compared with the Cdc42 conditional knockout mouse", "result": "did not cause"}, {"measurement": "toxic effect in WT or Cdc42 deficient HSPCs", "setting": "LDBM cells; dose range of 5-10 μM", "result": "without a detectable toxic effect"}]}]}
